Data on two molecules can be found in US10765687B2, “Methods and compounds to inhibit enveloped virus release” (Northwestern University, priority 2012, dated 2020).

Like-named read-outs stand apart in the source and are kept apart here.

The test system of series [1] is ASLV virus like particles (VLPs). Put plainly: ASLV VLP release from 293 cells, Western blot with anti-ASLV Gag antibody. In kind it is cell-based. As to conditions: FIG. 6A, compared with untreated cells. On the procedure:
293/E cells were cultured in DMEM supplemented with 10% fetal bovine serum, penicillin (1,000 units/ml), and streptomycin (1,000 μg/ml) to 50% confluence at 37° C. Expression of plasmids from p2036 was high in 293/E cells because these cells stably express the EBNA1 protein of EBV and the p2036 constructs contain the EBV FR plasmid maintenance element that EBNA 1 binds. Therefore 293/E cells were used when proteins expressed from p2036 were to be detected by western analysis. In all experiments, 24-well plates of 293/E cells were transfected with 0.5 μg of p2036-ASLV Gag with the X-treme Gene9 transfection reagent (Roche Diagnostics, Alameda, Calif., USA) according to the manufacturer's instructions. After 24 h after DNA transfection, the cells were washed with 1×DPS that contained CaCl2 (0.1 mM) and MgCl2 (1 mM) [Gibco #14040-133], and 1 ml of cell culture medium (10% FBS, 1% Penicillin/Streptomycin) containing CaCl2 (0.5 mM) and MgCl2 (5 mM) was added. […]
For the budding assay, both media and cell lysate fractions were collected. […] After blocking of the membrane with wash buffer (10 mM Tris-HCl, pH 8.0, 150 mM NaCl, and 0.1% Tween 20) containing 5% nonfat dry milk, ASLV Gag proteins were detected with an AMV MA (p19) directed monoclonal antibody (mAb) and an anti-mouse IgG-HRP secondary antibody for ECL (Denville Scientific; Metuchen, N.J.).
(A western blot detects proteins with antibodies after separation by electrophoresis.)

In series [2] the test system is 293 cells.
The subject of another series is HIV-1. In words: HIV-1 release from T-cells in culture, HIV-1 CA protein in media by ELISA. The settings on record: T cells contacted with compound then infected with HIV-1. (In general: ELISA stands for enzyme-linked immunosorbent assay.)
Series [3] concerns 293 cells. In words: Toxicity of inhibitor concentrations to cultured cells of the VLP release assay. As to conditions: concentrations of FIG. 6A.

From the text for HIV-1: These compounds were further evaluated as antiviral inhibitors of virus budding and release using the methods disclosed herein.

Take `Cl.NC(CO)C(=O)NNCc1ccc(O)c(O)c1O` (racemic) [Benserazide Hydrochloride, (RS)-2-amino-3-hydroxy-N′-(2,3,4-trihydroxybenzyl) propanehydrazide hydrochloride]: the “Release of ASLV VLPs from cells” value in series [1] is “budding defect”. Moreover, the “Cell toxicity of inhibitor concentrations” value in the series with 293 cells [2] is given as “not cell toxic”. For the same molecule, the “HIV-1 particle release (in words)” value in the series on HIV-1 is “significant reduction in HIV-1 particle release”.
With `CN(C)[C@@H]1C(O)=C(C(N)=O)C(=O)[C@@]2(O)C(=O)C3=C(O)c4c(O)cccc4[C@@](C)(O)[C@H]3[C@H](O)[C@@H]12` [Oxytetracycline, (4S,4aR,5S,5aR,6S,12aS)-4-(dimethylamino)-3,5,6,10,11,12a-hexahydroxy-6-methyl-1,12-dioxo-1,4,4a,5,5a,6,12,12a-octahydrotetracene-2-carboxamide], in series [1], the “Release of ASLV VLPs from cells” value was “budding defect”. In addition, the “HIV-1 particle release (in words)” value with HIV-1 was “significant reduction in HIV-1 particle release”. Moreover, the “Cell toxicity of inhibitor concentrations” value in the series on 293 cells [3] was “not cell toxic”.
